Data on 18 molecules can be found in patent publication US8710232B2, “Imidazole derivatives used as TAFIa inhibitors” (Sanofi-Aventis Deutschland GmbH, priority 2004, dated 2014).

Sequence of TAFIa (Q96IY4 115-423): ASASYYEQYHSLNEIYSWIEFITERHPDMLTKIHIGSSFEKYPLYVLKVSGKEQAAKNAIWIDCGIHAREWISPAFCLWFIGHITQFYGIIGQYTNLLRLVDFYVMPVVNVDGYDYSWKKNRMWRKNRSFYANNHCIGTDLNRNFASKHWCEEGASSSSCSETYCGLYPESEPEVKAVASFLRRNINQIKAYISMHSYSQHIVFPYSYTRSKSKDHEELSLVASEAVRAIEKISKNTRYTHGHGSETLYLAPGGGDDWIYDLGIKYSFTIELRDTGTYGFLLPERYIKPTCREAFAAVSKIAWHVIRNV

The assay deals with TAFIa (Homo sapiens (Human), UniProt Q96IY4). In words: TAFIa enzyme assay (Actichrome plasma TAFI activity kit). The class given is biochemical. The settings on record: 15 min preincubation at room temperature, read at 420 nm, duplicate determination. On the procedure:
The prepared substances were tested for TAFIa inhibition using the Actichrome plasma TAFI activity kit from American Diagnostica (Pr. No. 874). This entailed adding 29 μl of assay buffer (20 mM Hepes, 150 mM NaCl, pH 7.4) and 10 μl of TAFIa (American Diagnostica Pr. No. 874TAFIA; […]) to 1 μl of 5 mM DMSO solution of the substance and incubating in a 96 half-well microtiter plate at room temperature for 15 minutes. The enzymic reaction was started by adding 10 μl of TAFIa developer (prediluted 1:2 with water). The time course of the reaction was followed at 420 nm in a microtiter plate reader (SpectraMax plus 384; Molecular Devices) for 15 minutes. The IC50 was calculated from the averaged values (duplicate determination) of serial dilutions of the substance with the aid of the Grafit 4 software (Erithacus Software, UK).
By IC50 is commonly meant the concentration needed to halve the response being measured. High values mean lower potency, low ones higher potency. For `C#CCn1cnc(C(Cc2ccc(N)nc2)C(=O)O)c1` (stereo not drawn) [Example 31, 3-(6-Aminopyridin-3-yl)-2-(1-prop-2-ynyl-1H-imidazol-4-yl)propionic acid], the 50% inhibitory concentration (IC50) was found to be 870 nM.
`CCCNC(=O)Nc1ccc(-n2cnc(C(Cc3ccc(N)nc3)C(=O)O)c2)cc1` (stereo not drawn) [Example 37, 3-(6-Aminopyridin-3-yl)-2-{1-[4-(3-propylureido)phenyl]-1H-imidazol-4-yl}propionic acid] registered an IC50 of 49 nM.
`Nc1ccc(CC(C(=O)O)c2cn(-c3ccc(NC(=O)Nc4ccccc4)cc3)cn2)cn1` (stereo not drawn) [Example 12, 3-(6-Aminopyridin-3-yl)-2-{1-[4-(3-phenylureido)phenyl]-1H-imidazol-4-yl}propionic acid] returned an IC50 of 15 nM.
`Nc1ccc(CC(C(=O)O)c2cn(C3CCCC3)cn2)cn1` (stereo not drawn) [Example 7, 3-(6-Aminopyridin-3-yl)-2-(1-cyclopentyl-1H-imidazol-4-yl)propionic acid] had an IC50 of 16 nM.
Then `Nc1ccc(CC(C(=O)O)c2cn(CCC3CCN(C(=O)CCc4ccccc4)CC3)cn2)cn1` (stereo not drawn) [Example 18, 3-(6-Aminopyridin-3-yl)-2-(1-{2-[1-(3-phenylpropionyl)piperidin-4-yl]ethyl}1H-imidazol-4-yl)propionic acid], with 21 nM.
On to `CC1(C)CCC(n2cnc(C(Cc3ccc(N)nc3)C(=O)O)c2)CC1` (stereo not drawn) [Example 33, 3-(6-Aminopyridin-3-yl)-2-[1-(4,4-dimethylcyclohexyl)-1H-imidazol-4-yl]propionic acid], for which the IC50 turned out to be 3 nM.
As to `Nc1ccc(CC(C(=O)O)c2cn(CC3CCCCN3C(=O)c3ccccc3)cn2)cn1` (stereo not drawn) [Example 15, 3-(6-Aminopyridin-3-yl)-2-[1-(1-benzoylpiperidin-2-ylmethyl)-1H-imidazol-4-yl]propionic acid], the 50% inhibitory concentration (IC50) was determined as 12 nM.
The same measure for `Nc1ccc(CC(C(=O)O)c2cn(CC(=O)NC(c3ccccc3)c3ccccc3)cn2)cn1` (stereo not drawn) [Example 10, 3-(6-Aminopyridin-3-yl)-2-{1-[(benzhydrylcarbamoyl)methyl]-1H-imidazol-4-yl}-propionic acid]: 23 nM; for `Nc1ccc(CC(C(=O)O)c2cn(CCC3CCN(C(=O)C(c4ccccc4)c4ccccc4)CC3)cn2)cn1` (stereo not drawn) [Example 13, 3-(6-Aminopyridin-3-yl)-2-{1-[2-(1-diphenylacetylpiperidin-4-yl)ethyl]-1H-imidazol-4-yl}-propionic acid]: 12 nM; for `Nc1ccc(CC(C(=O)O)c2cn(C3CCCCC3)cn2)cn1` (stereo not drawn) [Example 1, 3-(6-Aminopyridin-3-yl)-2-(1-cyclohexyl-1H-imidazol-4-yl)propionic acid]: 30 nM.
For `Nc1ccc(CC(C(=O)O)c2cn(Cc3csc4ccc(Cl)cc34)cn2)cn1` (stereo not drawn) [Example 27, 3-(6-Aminopyridin-3-yl)-2-[1-(5-chlorobenzo[b]thiophen-3-ylmethyl)-1H-imidazol-4-yl]-propionic acid], the half-inhibitory concentration (IC50) turned out to be 1110 nM.
In the case of `Cc1ccc(S(=O)(=O)Nc2ccc(-n3cnc(C(Cc4ccc(N)nc4)C(=O)O)c3)cc2)cc1` (stereo not drawn) [Example 38], the half-inhibitory concentration (IC50) turned out to be 50 nM.
Molecule `Nc1ccc(CC(C(=O)O)c2cn(CC3CCCN(C(=O)C(c4ccccc4)c4ccccc4)C3)cn2)cn1` (stereo not drawn) [Example 17, 3-(6-Aminopyridin-3-yl)-2-[1-(1-diphenylacetylpiperidin-3-ylmethyl)-1H-imidazol-4-yl]-propionic acid] registered a half-inhibitory concentration (IC50) of 11 nM.
With `Nc1ccc(CC(C(=O)O)c2cn(CCC3CCCN(C(=O)CCc4ccccc4)C3)cn2)cn1` (stereo not drawn) [Example 16, 3-(6-Aminopyridin-3-yl)-2-(1-{2-[1-(3-phenylpropionyl)piperidin-3-yl]ethyl}-1H-imidazol-4-yl)propionic acid], the IC50 came to 38 nM.
Regarding `Nc1ccc(CC(C(=O)O)c2cn(C3CCNCC3)cn2)cn1` (stereo not drawn) [Example 8, 3-(6-Aminopyridin-3-yl)-2-(1-piperidin-4-yl-1H-imidazol-4-yl)propionic acid], the 50% inhibitory concentration (IC50) was determined as 1130 nM.
`Nc1ccc(CC(C(=O)O)c2cn(Cc3ccc(OC(F)(F)F)cc3)cn2)cn1` (stereo not drawn) [Example 25, 3-(6-Aminopyridin-3-yl)-2-[1-(4-trifluoromethoxybenzyl)-1H-imidazol-4-yl]propionic acid]: it took 10500 nM to reach half-maximal inhibition (IC50).
On to `Nc1ccc(CC(C(=O)O)c2cn(Cc3cccc(Oc4ccc(F)cc4)c3)cn2)cn1` (stereo not drawn) [Example 28, 3-(6-Aminopyridin-3-yl)-2-{1-[3-(4-fluorophenoxy)benzyl]-1H-imidazol-4-yl}propionic acid], for which the half-inhibitory concentration (IC50) was determined as 1440 nM.
`Nc1ccc(CC(C(=O)O)c2cn(C3CCN(c4ccccc4)C3=O)cn2)cn1` (stereo not drawn) [Example 9, 3-(6-Aminopyridin-3-yl)-2-[1-(2-oxo-1-phenylpyrrolidin-3-yl)-1H-imidazol-4-yl]propionic acid] showed a half-inhibitory concentration (IC50) of 439 nM.
